The results in this text go back to US9580433B2 (Janssen Pharmaceutica NV, priority 2013, dated 2017).

In assay [1] the test system is Abeta 1-42 produced and secreted by SKNBE2 cells (BACE1). In words: BACE1 cellular αLisa assay in SKNBE2 cells, Abeta 1-42. In kind it is cell-based, human. The conditions noted are these: Homo sapiens, SKNBE2, 18 h, SKNBE2 cells expressing hAPP695, 18 hours incubation; read-out: Cellular αLisa assay in SKNBE2 cells Abeta 42 pIC50 (converted). How it is done:
(§1) BACE1 Cellular αLisa Assay in SKNBE2 Cells
(§2) In two αLisa assays the levels of Abeta total and Abeta 1-42 produced and secreted into the medium of human neuroblastoma SKNBE2 cells are quantified. The assay is based on the human neuroblastoma SKNBE2 expressing the wild type Amyloid Precursor Protein (hAPP695). The compounds are diluted and added to these cells, incubated for 18 hours and then measurements of Abeta 1-42 and Abeta total are taken. Abeta total and Abeta 1-42 are measured by sandwich αLisa. αLisa is a sandwich assay using biotinylated antibody AbN/25 attached to streptavidin coated beads and antibody Ab4G8 or cAb42/26 conjugated acceptor beads for the detection of Abeta total and Abeta 1-42 respectively. In the presence of Abeta total or Abeta 1-42, the beads come into close proximity. The excitation of the donor beads provokes the release of singlet oxygen molecules that trigger a cascade of energy transfer in the acceptor beads, resulting in light emission. Light emission is measured after 1 hour incubation (excitation at […] and emission at 615 nm).
(§3) A best-fit curve is fitted by a minimum sum of squares method to the plot of % Controlmin versus compound concentration.

Assay [2] deals with Abeta total produced and secreted by SKNBE2 cells (BACE1). Description: BACE1 cellular αLisa assay in SKNBE2 cells, Abeta total. Format: cell-based, human. The following applies: Homo sapiens, SKNBE2, 18 h, SKNBE2 cells expressing hAPP695, 18 hours incubation; read-out: Cellular αLisa assay in SKNBE2 cells Abetatotal pIC50 (converted). As for the experimental part:
as §1, §2, §3

The target in the next assay is T1, BACE1 (Homo sapiens, UniProt P56817).
T1 construct: recombinant BACE1 protein in a final concentration of 0.04 g/ml
In words: BACE1 biochemical FRET based assay. The following applies: recombinant BACE1, 450 min, pH 5.0; read-out: BACE1 Biochemical FRET based assay pIC50 (converted).

In assay [3] the test system is brain levels of soluble Aβ42, Aβ40. In words: In vivo Aβ lowering, brain levels of soluble Aβ by MSD electrochemiluminescence. The following applies: 4 h after administration, untreated control set at 100. Details: species or system mouse. The source says:
To determine whether acute administration of an Aβ lowering agent would reduce Aβ levels in vivo, non-transgenic rodents, e.g. mice or rats were used. Animals treated with the Aβ lowering agent were examined and compared to those untreated or treated with vehicle and brain levels of soluble Aβ42, Aβ40, Aβ38, and Aβ37 were quantitated by Meso Scale Discovery's (MSD) electrochemiluminescence detection technology. Treatment periods varied from hours (h) to days and were adjusted based on the results of the Aβ lowering once a time course of onset of effect could be established.
A typical protocol for measuring Aβ lowering in vivo is shown but it is only one of many variations that could be used to optimize the levels of detectable Aβ. For example, Aβ lowering compounds were formulated in 20% of Captisol® (a sulfo-butyl ether of β-cyclodextrin) in water or 20% hydroxypropyl 3 cyclodextrin. The Aβ lowering agents were administered as a single oral dose or by any acceptable route of administration to overnight fasted animals. After 4 h, the animals were sacrificed and Aβ levels were analysed.
Blood was collected by decapitation and exsanguinations in EDTA-treated collection tubes. Blood was centrifuged at 1900 g for 10 minutes (min) at 4° C. and the plasma recovered and flash frozen for later analysis. The brain was removed from the cranium and hindbrain. The cerebellum was removed and the left and right hemisphere were separated. The left hemisphere was stored at −18° C. for quantitative analysis of test compound levels. The right hemisphere was rinsed with phosphate-buffered saline (PBS) buffer and immediately frozen on dry ice and stored at −80° C. until homogenization for biochemical assays.
Mouse brains from non-transgenic animals were resuspended in 8 volumes of 0.4% DEA (diethylamine)/50 mM NaCl containing protease inhibitors (Roche-11873580001 or 04693159001) per gram of tissue, e.g. for 0.158 g brain, add 1.264 ml of 0.4% DEA. All samples were homogenized in the FastPrep-24 system (MP Biomedicals) using lysing matrix D (MPBio #6913-100) at 6 m/s for 20 seconds. […] Nine parts of supernatant were neutralized with 1 part 0.5 M Tris-HCl pH 6.8 and used to quantify Aβ.
To quantify the amount of Aβ42, Aβ40, Aβ38, and Aβ37 in the soluble fraction of the brain homogenates, simultaneous specific detection of Aβ42, Aβ40, Aβ38, and Aβ37 was performed using MSD's electro-chemiluminescence multiplex detection technology. […] Following this incubation and subsequent wash steps the assay was finished by adding read buffer according to the manufacturer's instructions (Meso Scale Discovery, Gaithersburg, Md.).
The SULFO-TAG emits light upon electrochemical stimulation initiated at the electrode. MSD Sector instrument SI6000 was used for signal read-out. […]

A further assay concerns the target T2, BACE2 (Homo sapiens, UniProt Q9Y5Z0).
T2 construct: recombinant BACE2 protein in a final concentration of 0.4 μg/ml
T2 sequence (Q9Y5Z0 63-518): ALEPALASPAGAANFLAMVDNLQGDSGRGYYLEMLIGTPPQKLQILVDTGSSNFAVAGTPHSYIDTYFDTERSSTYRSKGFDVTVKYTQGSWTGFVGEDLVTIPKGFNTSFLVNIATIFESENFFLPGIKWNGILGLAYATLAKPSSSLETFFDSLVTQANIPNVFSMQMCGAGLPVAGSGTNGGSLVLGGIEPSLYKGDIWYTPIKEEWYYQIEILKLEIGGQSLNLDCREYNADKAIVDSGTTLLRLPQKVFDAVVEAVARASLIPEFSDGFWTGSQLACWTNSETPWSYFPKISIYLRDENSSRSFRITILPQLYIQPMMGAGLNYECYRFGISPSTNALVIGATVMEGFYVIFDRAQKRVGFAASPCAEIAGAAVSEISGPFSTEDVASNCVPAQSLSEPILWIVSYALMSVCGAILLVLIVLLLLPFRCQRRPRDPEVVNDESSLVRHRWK
Description: BACE2 biochemical FRET based assay. The following applies: recombinant BACE2, 450 min, pH 5.0; read-out: BACE2 Biochemical FRET based assay pIC50 (converted).

Each structure is given as a SMILES string.

T1 sequence (P56817 46-501): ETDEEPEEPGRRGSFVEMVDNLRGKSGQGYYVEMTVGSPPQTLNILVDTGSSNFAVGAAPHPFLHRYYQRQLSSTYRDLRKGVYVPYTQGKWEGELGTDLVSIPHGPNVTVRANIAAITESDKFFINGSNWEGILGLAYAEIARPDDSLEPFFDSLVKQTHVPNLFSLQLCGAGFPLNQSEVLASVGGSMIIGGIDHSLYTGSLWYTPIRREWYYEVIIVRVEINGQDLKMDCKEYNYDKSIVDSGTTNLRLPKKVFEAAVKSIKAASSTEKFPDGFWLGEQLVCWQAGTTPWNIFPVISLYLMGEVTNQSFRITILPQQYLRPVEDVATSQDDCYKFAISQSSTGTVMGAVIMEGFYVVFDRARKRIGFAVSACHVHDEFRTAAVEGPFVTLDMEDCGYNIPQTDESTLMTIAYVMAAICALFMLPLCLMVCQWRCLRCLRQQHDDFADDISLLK

For `Cc1nc(C(=O)Nc2ccc(F)c([C@]3(C)Cn4cncc4C(N)=N3)c2)co1` [Compound 4, N-{3-[(6R)-8-Amino-6-methyl-5,6-dihydroimidazo[1,5-a]pyrazin-6-yl]-4-fluorophenyl}-2-methyl-1,3-oxazole-4-carboxamide], the IC50 was 26.3 nM in assay [1], 24 nM in assay [2], 11.7 nM at BACE1 and 6.46 nM at BACE2. In addition, in assay [3] (dose 10, p.o.), the “Aβ40 (% vs Ctrl)_Mean” value stood at 111 % vs Ctrl. Also, in assay [3] (dose 10, p.o.), the “Aβ42 (% vs Ctrl)_Mean” value is 108 % vs Ctrl.
As to `C[C@@]1(c2cc(NC(=O)c3ccc(C#N)cn3)ccc2F)Cn2cncc2C(N)=N1` [Compound 5, N-{3-[(6R)-8-Amino-6-methyl-5,6-dihydroimidazo[1,5-a]pyrazin-6-yl]-4-fluorophenyl}-5-cyanopyridine-2-carboxamide], the IC50 in assay [1] was 5.25 nM. For the same compound, in assay [2], the IC50 was 4.79 nM. For the same compound, in assay [3] (dose 10, s.c.), the “Aβ40 (% vs Ctrl)_Mean” value amounted to 108 % vs Ctrl and the “Aβ42 (% vs Ctrl)_Mean” value is given as 100 % vs Ctrl.
